Patent US4358607A, “Chloro-substituted benzospiro cyclopropane carboxylic acid” (American Cyanamid Co., priority 1978, dated 1982)
Values joined by “and” are separate entries in the source; they are usually repeats but may differ in a detail not shown here. Identical values can stand only once.

What was measured:
Format in all cases: in vivo
Boophilus microplus = experiment: Control of Ixodidae: engorged adult female ticks, reduction in viable egg masses
Protocol: The compound to be tested is dissolved in a 35% acetone/65% water mixture in amounts sufficient to provide the concentrations indicated in Table I below. Ten ticks per treatment are used and they are immersed in the test solution for three to five minutes, then removed and held in incubators for two to three weeks at 28° C. Counts of ticks laying eggs are then made and recorded. Eggs which were laid are placed in containers and kept for one month to observe hatching and to determine chemosterilant effect.
Percent reduction in viable egg masses is believed to be indicative of one or more of the following mechanisms:
2. Suppression of fecundity.
3. Chemosterilant effect.

[1] = test system: Boophilus microplus larvae; experiment: Control of Boophilus microplus larvae; settings: Rhipicephalus microplus, 48 h, read-out: Percent Mortality of Boophilus microplus
Protocol: Twenty larvae are enclosed in a pipet sealed at one end with a gauze material, and a solution, containing the test compound at the concentrations given, is then drawn through the pipet with a vacuum hose simulating a spray system. The ticks are then held for 48 hours at room temperature, and percent mortality rates are then determined.

[2] = test system: Malaria Mosquito (Anopheles quadrimaculatus); experiment: Malaria Mosquito egg and larvae test
Protocol: Malaria Mosquito (Anopheles quadrimaculatus say) egg and larvae test. One ml of a 300 ppm solution is pipetted into a 400 ml beaker containing 250 ml of deionized water and stirred with the pipette, giving a concentration of 1.2 ppm. A wax paper ring 0.6 cm wide to fit inside the beaker is floated on the surface of the test solution to keep the eggs from floating up the meniscus curve and drying out on the side of the glass. A spoon made of screen is used to scoop up and transfer about 100 eggs (0-24 hours old) into the test beaker. After two days at 26.7°C. observations of hatching are made. This includes kill of eggs or inhibition of hatch, kill of newly hatched larvae, or delayed hatch. Additional observations are made after another day for the same effects. The rating system employed in these tests is as follows: Compounds rated active (8 or 9) are further tested at reduced concentrations in 50% acetone: 50% water.

[3] = test system: Tobacco Budworm [Heliothis virescens] larvae; experiment: Tobacco Budworm newly hatched larvae test; settings: 3 days
Protocol: (§1) Tobacco Budworm [Heliothis virescens (Fabricus)].
(§2) A cotton plant with 2 true leaves expanded is dipped for 3 seconds with agitation in a 300 ppm solution. A 1.25 to 2 cm square of cheesecloth with about 50 to 100 budworm eggs 0-24 hours old is also dipped in the test solution and placed on one leaf to dry. The leaf with the treated budworm eggs is removed from the plant and placed in a 236.6 ml (8-Oz) Dixie cup with a wet 5 cm piece of dental wick and covered with a lid. The other leaf is placed in a similar cup with a wick and a piece of cheesecloth infested with 50-100 newly hatched larvae is added before covering the cup with a lid. After 3 days at 26.7° C., observations of egg hatch are made as well as kill of newly hatched larvae, any inhibition of feeding, or interference of any sort with normal development.
(§3) The rating system employed in these tests is as follows:
(§4) Compounds rated active (8 or 9) are further tested at reduced concentrations in 50% acetone: 50% water.

[4] = test system: Tobacco Budworm [Heliothis virescens] eggs; experiment: Tobacco Budworm egg test; settings: 300 ppm, 3 days
Protocol: as §1, §2, §3, §4

[5] = test system: Two-Spotted Spider Mite [Tetranychus urticae]; experiment: Phosphate-Resistant Strain of Two-Spotted Spider Mite test
Protocol: Phosphate-Resistant Strain of Two-Spotted Spider Mite [Tetranychus urticae (Koch)].
Sieva lima bean plants, with primary leaves 7.6 to 10 cm long, are infested with about 100 adult mites per leaf 4 hours before use in this test, in order to allow egg-laying before treatment. The infested plants are dipped for 3 seconds with agitation into a 300 ppm solution, and the plants set in the hood to dry. After 2 days at 26.7° C., the adult mite mortality is estimated on one leaf under a 10X stereoscopic microscope. The other leaf is left on the plant an additional 5 days and then examined at 10X power to estimate the kill of eggs and of newly-hatched nymphs, giving a measure of ovicidal and residual action, respectively.
as §3, §4

[6] = test system: Mexican Bean Beetle (Epilachna varivestis); experiment: Mexican Bean Beetle test; settings: 300 ppm
From the text: Mexican Bean Beetle (Epilachna varivestis Mulsant)
Sieva lima bean plants (2 per pot) with primary leaves 7.6 to 10 cm long, are dipped in a 300 ppm solution and set in a hood to dry. One leaf is removed from the plant and placed in a 10 cm petri dish containing a moist filter paper on the bottom and 10 last-instar larvae (13 days from hatching).
The day after treatment, another leaf is removed from the plant and fed to the larvae after removing the remains of the original leaf. Two days after treatment, the third leaf is fed to the larvae, this usually being the last needed. The fourth leaf is used on the third day after treatment if the larvae have not finished feeding. The test is now set aside and held until adults have emerged, usually about 9 days after treatment began. After emergence is complete, each dish is examined for dead larvae, pupae or adults; deformed pupae or adults; larval-pupal intermediates or pupal-adult intermediates; or any other interference with normal molting, transformation and emergence of pupae or adults.
as §3, §4

[7] = test system: Southern Armyworm [Spodoptera eridania]; experiment: Southern Armyworm test; settings: 2 days
Protocol: Southern Armyworm [Spodoptera eridania (Cramer)].
A sieva lima bean plant with just the primary leaves expanded to 7.6 to 10 cm is dipped for 3 seconds with agitation in a 1000 ppm solution and set in a hood to dry. Following this, one leaf is placed in a 10 cm petri dish which has a moist filter paper in the bottom and 10 third-instar armyworm larvae about 1 cm long. The dish is covered and held at 26.7° C. After 2 days mortality counts and estimates of the amount of feeding are made. Compounds showing partial kill and/or inhibition of feeding are held for an extra day for further observations.
as §3, §4

[8] = test system: Cabbage Looper [Trichoplusia ni]; experiment: Cabbage Looper test; settings: 2 days
Protocol: Cabbage Looper. [Trichoplusia ni (Hubner)].
A primary leaf of a cotton plant is dipped in the test solution and agitated for 3 seconds. It is then set in a hood to dry. Following this, the leaf is placed in a 10 cm petri dish containing a moist filter paper at the bottom and 10 third-instar loopers. The dish is covered and held at 26.7° C. After 2 days, mortality counts and estimates of feeding damage are recorded. Those materials showing partial kill and/or inhibition of feeding are held for another day for further observations.
as §3, §4

[9] = test system: Tobacco Budworm [Heliothis virescens] third instar; experiment: Tobacco Budworm third instar test; settings: 3 days
Protocol: Tobacco Budworm [Heliothis virescens (Fabricius)]. Third instar. Three cotton plants with just expanded cotyledons are dipped in a 1000 ppm solution, and placed in a hood to dry. When dry, each cotyledon is cut in half and 10 are each placed in a 29.6 ml plastic medicine cup containing a 1.25 cm dental wick saturated with water, and one third-instar budworm larva is added. The cup is capped and held for 3 days at 26.7° C., after which mortality counts are made. The rating system employed in these tests is as follows: Compounds rated active (8 or 9) are further tested at reduced concentrations in 50% acetone: 50% water.

Bean Aphid (Aphid fabae) = experiment: Bean Aphid test; settings: 1 day
Protocol: Bean Aphid (Aphid fabae Scopoli).
Five cm fiber pots, each containing a nasturtium plant 5 cm high and infested with 100 to 500 aphids 2 days earlier are placed on a 4 rpm turntable and sprayed with a 100 ppm solution of 2 revolutions with a No. 154 DeVilbiss Atomizer at 1.4 kg/cm^2 air pressure. The spray tip is held about 15 cm from the plants and the spray directed so as to give complete coverage of the aphids and the plants. The sprayed plants are laid on their sides on white enamel trays. Mortality estimates are made after 1 day at 26.7° C.
as §3, §4

[10] = test system: Malaria Mosquito (Anopheles quadrimaculatus) adult; experiment: Malaria Mosquito Adult Test; settings: 1 day
Protocol: Malaria Mosquito (Anopheles quadrimaculatus Say) Adult Test
Ten ppm solutions are poured into wide-mouth 46.2 ml jars each containing a microscope slide. The slides are removed from the test solution with forceps and laid horizontally to dry on a wide-mouth 118.4 ml bottle. When dry, they are placed in the same 118.4 ml bottle and ten 4 to 5-day old mosquitoes of mixed sexes are added to each bottle. A piece of cotton gauze held on by an elastic band serves as a lid and a wad of cotton soaked in 10% honey solution serves as food. Mortality counts are made after 1 day at 26.7° C.
as §3, §4

[11] = test system: Western Potato Leaf Hopper (Empoasca abrupta); experiment: Western Potato Leaf Hopper test; settings: 2 days
From the text: Western Potato Leaf Hopper (Empoasca abrupta DeLong)
A lima bean plant with the primary leaf expanded to 7.6 to 10 cm is dipped into a 100 ppm solution and set in a hood to dry. A 2.5 cm piece of the tip of 1 leaf is cut off and placed in a 10 cm petri dish with a moist filter paper in the bottom. (In practice, this is usually cut off the tip of a plant from the Mexican bean beetle tests using a bean leaf dipped in the needed solution). From 3 to 10 second-instar nymphs are tapped from the culture plants into the test dish and rapidly covered. Mortality counts are made after two days at 26.7° C.
as §3, §4

CC1(C)C(C(=O)OC(C#N)c2cccc(Oc3ccccc3)c2)C12C=C(Cl)c1ccccc12 (centres unmarked) [drawing 5]
Percent reduction in viable egg masses (Boophilus microplus; 125 ppm): 98%

CC1(C)C(C(=O)OCc2cccc(Oc3ccccc3)c2)C12C=C(Cl)c1ccccc12 (centres unmarked) [drawing 6]
Percent reduction in viable egg masses (Boophilus microplus; 15 ppm): 0%
Percent reduction in viable egg masses (Boophilus microplus; 31 ppm): 72.7%
Percent reduction in viable egg masses (Boophilus microplus; 62 ppm): 83.9%
Percent reduction in viable egg masses (Boophilus microplus; 125 ppm): 91.9%

CC1(C)C(C(=O)OC(C#N)c2cccc(Oc3ccccc3)c2)C12C=C(Cl)c1ccccc12 (centres unmarked) [drawing 7]
mortality at 0.012 ppm ([1]; 0.012 ppm): 0%
mortality at 0.05 ppm ([1]; 0.05 ppm): 0%
mortality at 0.78 ppm ([1]; 0.78 ppm): 80 to 100%

CC1(C)C(C(=O)OCc2cccc(Oc3ccccc3)c2)C12C=C(Cl)c1ccccc12 (centres unmarked) [drawing 8]
mortality at 100 ppm ([1]; 100 ppm): 100%

CC1(C)C(C(=O)OC(C#N)c2cccc(Oc3ccccc3)c2)C12C=C(Cl)c1ccccc12 (centres unmarked) [drawing 9]
Insecticidal activity rating, Mosquito Larvae ([2]; 0.04 ppm): 9 (100% mortality)
Insecticidal activity rating, Mosquito Larvae ([2]; 0.4 ppm): 9 (100% mortality)
Insecticidal activity rating, Mosquito Larvae ([2]; 1.2 ppm): 9 (100% mortality)
Insecticidal activity rating, Tobacco Budworm Larvae ([3]; 10 ppm): 9 (100% mortality)
Insecticidal activity rating, Tobacco Budworm Larvae ([3]; 100 ppm): 9 (100% mortality)
Insecticidal activity rating, Tobacco Budworm Larvae ([3]; 300 ppm): 9 (100% mortality)
Insecticidal activity rating, Tobacco Budworm Eggs [4]: 0 (0-4% killed or affected)

CC1(C)C(C(=O)OCc2cccc(Oc3ccccc3)c2)C12C=C(Cl)c1ccccc12 (centres unmarked) [drawing 10]
Insecticidal activity rating, Mosquito Larvae ([2]; 0.04 ppm): 9 (100% mortality)
Insecticidal activity rating, Mosquito Larvae ([2]; 0.4 ppm): 9 (100% mortality)
Insecticidal activity rating, Mosquito Larvae ([2]; 1.2 ppm): 9 (100% mortality)
Insecticidal activity rating, Tobacco Budworm Larvae ([3]; 10 ppm): 9 (100% mortality)
Insecticidal activity rating, Tobacco Budworm Larvae ([3]; 100 ppm): 9 (100% mortality)
Insecticidal activity rating, Tobacco Budworm Larvae ([3]; 300 ppm): 9 (100% mortality)
Insecticidal activity rating, Tobacco Budworm Eggs [4]: 0 (0-4% killed or affected)

CC1(C)C(C(=O)OCc2cccc(Oc3ccccc3)c2)C12C=C(Cl)c1ccccc12 (centres unmarked) [drawing 12]
Activity rating, Phosphate Resistant Mites ([5]; 100 ppm): 0 (0-4% killed or affected)
Activity rating, Phosphate Resistant Mites ([5]; 300 ppm): 8 (86-95% mortality)
Insecticidal activity rating, Mexican Bean Beetles [6]: 9 (100% mortality)
Insecticidal activity rating, Southern Armyworms ([7]; 10 ppm): 0 (0-4% killed or affected)
Insecticidal activity rating, Southern Armyworms ([7]; 100 ppm): 9 (100% mortality)
Insecticidal activity rating, Southern Armyworms ([7]; 1000 ppm): 9 (100% mortality)

CC1(C)C(C(=O)OC(C#N)c2cccc(Oc3ccccc3)c2)C12C=C(Cl)c1ccccc12 (centres unmarked) [drawing 13]
Insecticidal activity rating, Cabbage Looper ([8]; 100 ppm): 9 (100% mortality)
Insecticidal activity rating, Cabbage Looper ([8]; 1000 ppm): 9 (100% mortality)
Insecticidal activity rating, Tobacco Budworm 3rd Instar ([9]; 100 ppm): 0 (0-4% killed or affected)
Insecticidal activity rating, Tobacco Budworm 3rd Instar ([9]; 1000 ppm): 5 (51-60% mortality)
Insecticidal activity rating, Bean Aphids (Bean Aphid (Aphid fabae); 1 ppm): 9 (100% mortality)
Insecticidal activity rating, Bean Aphids (Bean Aphid (Aphid fabae); 10 ppm): 9 (100% mortality)
Insecticidal activity rating, Bean Aphids (Bean Aphid (Aphid fabae); 100 ppm): 9 (100% mortality)
Insecticidal activity rating, Mosquito, Adult ([10]; 1 ppm): 7 (71-85% mortality) and 6 (61-70% mortality) and 9 (100% mortality)
Insecticidal activity rating, Mosquito, Adult ([10]; 10 ppm): 9 (100% mortality)
Insecticidal activity rating, Leaf Hopper ([11]; 10 ppm): 9 (100% mortality)
Insecticidal activity rating, Leaf Hopper ([11]; 100 ppm): 9 (100% mortality)

CC1(C)C(C(=O)OCc2cccc(Oc3ccccc3)c2)C12C=C(Cl)c1ccccc12 (centres unmarked) [drawing 14]
Insecticidal activity rating, Cabbage Looper ([8]; 100 ppm): 9 (100% mortality)
Insecticidal activity rating, Cabbage Looper ([8]; 1000 ppm): 9 (100% mortality)
Insecticidal activity rating, Tobacco Budworm 3rd Instar ([9]; 100 ppm): 5 (51-60% mortality)
Insecticidal activity rating, Tobacco Budworm 3rd Instar ([9]; 1000 ppm): 9 (100% mortality)
Insecticidal activity rating, Bean Aphids (Bean Aphid (Aphid fabae); 1 ppm): 0 (0-4% killed or affected)
Insecticidal activity rating, Bean Aphids (Bean Aphid (Aphid fabae); 10 ppm): 9 (100% mortality)
Insecticidal activity rating, Bean Aphids (Bean Aphid (Aphid fabae); 100 ppm): 9 (100% mortality)
Insecticidal activity rating, Mosquito, Adult ([10]; 10 ppm): 0 (0-4% killed or affected)
Insecticidal activity rating, Leaf Hopper ([11]; 10 ppm): 9 (100% mortality)
Insecticidal activity rating, Leaf Hopper ([11]; 100 ppm): 9 (100% mortality)
